Results on ten compounds are retold here after US5204345A, “6-epifumagillols and the pharmaceutical use thereof” (Takeda Chemical Industries, Ltd., priority 1989, dated 1993).

Values after ≈ are worked out from the molar mass of the structure shown. Read-outs that look alike come from different tables or passages of the source.

The subject of assay [1] is bFGF-induced angiogenesis. Nature of the assay: rat cornea micropocket method, angiogenesis inhibitory activity. It is filed as in vivo, rat (Sprague-Dawley). To be noted: number of rats with angiogenesis inhibitory activity relative to number tested; sample 20 ug pellet, bFGF 250 ng, 10 days. As for the experimental part:
The object compounds (I) obtained in the Examples given below were evaluated for angiogenesis inhibitory activity by the rat cornea micropocket method. Method of Evaluation:
Essentially the same method of Gimbrone et al. [J. National Cancer Institute, 52, 413-419 (1974)] was followed. Thus, adult male Sprague-Dawley rats (11 to 16 week old) were anesthetized with nembutal and locally anesthetized by instillation of xylocaine eyedrops onto the eyeball. The cornea was incised to a length of about 2 mm at about 2 mm inside from the corneal circumference by means of an injection needle, and a basic fibroblast growth factor (bFGF; bovine brain-derived, purified product; R & D Inc.) and a sustained release pellet containing the test sample were inserted side by side into the incision so that the bFGF pellet was located on the central side in the cornea. In the control group, the bFGF pellet and a sample-free pellet were inserted into the cornea. After 10 days, the cornea was observed under a stereoscopic microscope.
The sustained release pellets were prepared in the following manner. An ethylene-vinyl acetate copolymer (Takeda Chemical Industries, Ltd.) was dissolved in dichloromethane to a concentration of 8%. A 3 μl portion of the solution was air-dried on a glass dish, an aqueous solution of bFGF (250 ng) was then placed thereon and air-dried and, finally 3 μl of the above ethylene-vinyl acetate copolymer solution was placed further thereon and air-dried to give a sandwich sheet. This sandwich sheet was made round into a bFGF pellet. The test sample pellets were prepared by dissolving each sample in ethanol in a concentration of 20 ug/2 μl, mixing the solution with 6 μl of an ethylene-vinyl acetate copolymer solution, air-drying the mixed solution in a glass dish and making the thus-obtainedsheet round.
In the Table 1 above, the inhibitory rate means the number of rats on which angiogenesis inhibitory activity was observed relative to the number of rats tested.

Assay [2] has as its system human umbilical vein endothelial cells. Nature of the assay: inhibition of human umbilical vein endothelial cell growth (MTT). It is filed as cell-based. The settings on record: 120 h, rFGF 2 ng/ml, 5-day culture, MTT OD590, read-out: IC50, inhibiting endothelial cell growth. As for the experimental part:
Evaluation of inhibition of human umbilical vein endothelial cell growth
Human umbilical vein endothelial cells were isolated by perfusion of an umbilical vein with a trypsin-containing medium. The cells were cultured in sequence in GIT medium (Daigo Eiyo Kagaku) supplemented with 2.5% fetal bovine serum and 2.0 ng/ml or recombinant human fibroblast growth factor (hereinafter simply referred to rFGF, prepared at Biotechnology Research Laboratories, Takeda Chemical Industries, Ltd.).
A suspension of human vein endothelial cells at the cell density of 2×10^3 (100 μl) was seeded on 96-well incubation plate (Nunc, 1-67008), and incubation was conducted in a gas-controlled thermostat vessel. The following day, 100 μl of medium containing rFGF (2 ng/ml at the final concentration) and samples of various concentrations were added. […] After 5-day culture, the culture solution containing samples was removed by suction, 100 μl of 1 mg/ml of MTT solution [3-(4,5-dimethyl-2-thiazolyl)-2,5-diphenyl-2H-tetrazolium bromide was dissolved in the culture solution] was added and kept warm it about 40° C. for 4 hours. Then, 100 μl of a 10% SDS solution (aqueous solution of sodium dodecyl sulfate) was added, and the mixture was kept warming for 5-6 hours. The cells and MTT pigment were solubilized, and the OD590 value was measured using a spectrophotometer.

Assay [3] relates to spleen cells from BALB/c and C57BL/6 mice. Nature of the assay: 3H-thymidine uptake induced by the mixed lymphocyte reaction of spleen cells. It is filed as cell-based, mouse (BALB/c and C57BL/6). The settings on record: Mus musculus, in vitro.
The subject of assay [4] is T cell dependent immunoglobulin production. Nature of the assay: antibody production induced by pokeweed mitogen (T cell dependent B cell mitogen). It is filed as cell-based. The settings on record: in vitro. The text has this:
(§1) The effects of compounds 5 and 8 on the antibody production induced by pokeweed mitogen, a T cell dependent B cell mitogen, and Epstein Barr virus, a T cell independent B cell mitogen, were examined.

For assay [5], the system named is T cell independent antibody production. Nature of the assay: antibody production induced by Epstein Barr virus (T cell independent B cell mitogen). It is filed as cell-based. The settings on record: in vitro.
Description: as §1

The subject of assay [6] is anti-bovine gamma globulin antibody titer. Nature of the assay: anti-bovine gamma globulin antibody titer in immunized mice. It is filed as in vivo, mouse (BALB/c). The settings on record: for Anti-bovine gamma globulin antibody titer, suppression: 20 mg/kg i.p. every 2 days, sera 3 weeks after immunization, words; for Anti-bovine gamma globulin Ab titer: percentage against reference group injected with saline, compounds 5 and 8: 20 mg/kg i.p. every 2 days, 3 weeks. As for the experimental part:
Anti-bovine gamma globulin antibody titer was assayed in sera obtained 3 weeks after the immunization.

The test system of assay [7] is germinal center formation and plasma cell induction in the spleen. Nature of the assay: histological study in the spleen of mice immunized with sheep red blood cells. It is filed as in vivo, mouse (BALB/c). To be noted: compounds 5 and 8: 100 mg/kg i.p. once a day for 4 days; day 6 after immunization; words.
The nature of a further assay: thymus and spleen weight. It is filed as in vivo, mouse (BALB/c). To be noted: for Spleen weight / Thymus weight: percentage against reference group injected with saline; for reduction of spleen weight: words.
The mark [8] stands for this setting: Lymphocyte, Table 3, read-out: Mixed lymphocyte reaction, concentration which showed 50% inhibition.
Where [9] appears, read: mixed lymphocyte reaction, read-out: 50% inhibition of 3H-thymidine uptake, concentration.
Where [10] appears, read: Table 3, read-out: T dependent Ab production, concentration which showed 50% inhibition.
Where [11] appears, read: pokeweed mitogen, read-out: 50% suppression of T cell dependent immunoglobulin production, concentration.
Where [12] appears, read: Epstein Barr virus, read-out: 50% suppression of T cell independent antibody production, concentration.
Where [13] appears, read: Table 3, read-out: T independent Ab production, concentration which showed 50% inhibition.

Description for thymus and spleen weight: and spleen were represented as percentages against those of a reference
group which were injected with saline.

In the case of `CO[C@@H]1[C@@H](OC=O)CC[C@]2(CO2)[C@H]1[C@@]1(C)O[C@@H]1CC=C(C)C` [Example 1, 6-O-formyl-6-epifumagillol], the “Inhibitory Rate” value in assay [1] is on record as 3/7. The IC50 in assay [2] is under 0.08 ng/mL.
On the same counts, the results for `CO[C@@H]1[C@@H](O)CC[C@]2(CO2)[C@H]1[C@@]1(C)O[C@@H]1CC=C(C)C` [Example 2, 6-epifumagillol] are 3/7 and under 0.08 ng/mL.
Turning to `CO[C@@H]1[C@@H](OC)CC[C@]2(CO2)[C@H]1[C@@]1(C)O[C@@H]1CC=C(C)C` [Example 3, 6-O-methyl-6-epifumagillol], the IC50 in assay [2] worked out at 9.82 ng/mL (≈ 33.1 nM).
For `CO[C@@H]1[C@@H](OC(C)=O)CC[C@]2(CO2)[C@H]1[C@@]1(C)O[C@@H]1CC=C(C)C` [Example 5, 6-O-acetyl-6-epifumagillol], the “Inhibitory Rate” value in assay [1] was 4/8. For the same compound, the IC50 in assay [2] was 1.91 ng/mL (≈ 5.89 nM); in assay [3] (setting [8]), 300 nM; in assay [3] (setting [9]), 300 nM; in assay [4] (setting [10]), 7000 nM; in assay [4] (setting [11]), 7000 nM; in assay [5] (setting [12]), 30 nM. In addition, the IC50 in assay [5] (setting [13]) amounted to 30 nM. For the same compound, in assay [6], the “Anti-bovine gamma globulin antibody titer, suppression” value is given as “significant suppression”. In addition, the “Anti-bovine gamma globulin Ab titer” value in assay [6] was 13%. Also, in assay [7], the “formation of germinal center in the spleen” value is on record as “suppressed the formation of germinal center”. Besides, the “induction of plasma cells in the spleen” value in assay [7] is listed as “suppressed”. The compound further displayed a Spleen weight in the assay “thymus and spleen weight” of 57%. Also, the Thymus weight in “thymus and spleen weight” is on record as 105%. Further, the “reduction of spleen weight” value in the assay “thymus and spleen weight” is on record as “reduction of spleen weight was observed”.
`CO[C@@H]1[C@@H](OC(=O)c2ccccc2)CC[C@]2(CO2)[C@H]1[C@@]1(C)O[C@@H]1CC=C(C)C` [Example 6, 6-O-benzoyl-6-epifumagillol]: the “Inhibitory Rate” value in assay [1] was 6/6. Also, in assay [2], the IC50 worked out at 2.05 ng/mL (≈ 5.3 nM).
The like results for `CO[C@@H]1[C@@H](OC(=O)CCC(=O)O)CC[C@]2(CO2)[C@H]1[C@@]1(C)O[C@@H]1CC=C(C)C` [Example 7, 6-O-(3-carboxypropionyl)-6-epifumagillol] were, in that order, 5/6 and 8.71 ng/mL (≈ 22.8 nM).
As to `CO[C@@H]1[C@@H](OC(=O)Oc2ccccc2)CC[C@]2(CO2)[C@H]1[C@@]1(C)O[C@@H]1CC=C(C)C` [Example 8, 6-O-phenoxycarbonyl-6-epifumagillol], the “Inhibitory Rate” value in assay [1] was 5/7. Besides, the IC50 was 0.166 ng/mL (≈ 0.412 nM) in assay [2]; 400 nM in assay [3] (setting [8]); 10 nM in assay [3] (setting [9]); 4000 nM in assay [4] (setting [10]); 4000 nM in assay [4] (setting [11]); 1 nM in assay [5] (setting [12]). Moreover, the IC50 in assay [5] (setting [13]) came out at 1 nM. The “Anti-bovine gamma globulin antibody titer, suppression” value in assay [6] is given as “significant suppression”. The “Anti-bovine gamma globulin Ab titer” value in assay [6] is given as 9%. The “formation of germinal center in the spleen” value in assay [7] was “suppressed the formation of germinal center”. Besides, the “induction of plasma cells in the spleen” value in assay [7] is given as “suppressed”. This compound also registered a Spleen weight in “thymus and spleen weight” of 60%. In “thymus and spleen weight”, this compound came in with a Thymus weight of 116%. The “reduction of spleen weight” value in the assay “thymus and spleen weight” is listed as “reduction of spleen weight was observed”.
For the compound `CO[C@@H]1[C@@H](OC(N)=O)CC[C@]2(CO2)[C@H]1[C@@]1(C)O[C@@H]1CC=C(C)C` [Example 9, 6-O-carbamoyl-6-epifumagillol], the IC50 in assay [2] is 0.1 ng/mL (≈ 0.307 nM).
The same measure, in the same setting: under `CO[C@@H]1[C@@H](OC(=O)N2CCOCC2)CC[C@]2(CO2)[C@H]1[C@@]1(C)O[C@@H]1CC=C(C)C` [Example 11, 6-O-morpholinocarbonyl-6-epifumagillol] stands 4.68 ng/mL (≈ 11.8 nM).
Take `CO[C@@H]1[C@@H](OS(C)(=O)=O)CC[C@]2(CO2)[C@H]1[C@@]1(C)O[C@@H]1CC=C(C)C` [Example 12, 6-O-methanesulfonyl-6-epifumagillol]: the “Inhibitory Rate” value in assay [1] is 3/4. Also, in assay [2], the IC50 was determined as 6.5 ng/mL (≈ 18 nM).
